Drawing on BindingDB's records for doi:10.1021/jm5013243 (Monash University (Parkville Campus), 2015), this text covers IC50 and EC50 for 6 compounds.

“And” between values parts separate entries of the source, which are not always exact repeats. Identical values can stand only once.

Assay [1] addresses Muscarinic acetylcholine receptor M1 (Homo sapiens) (UniProt P11229). Kind of assay: Displacement of [3H]NMS from human mAChR1 receptor expressed in F1pIn CHO cells after 60 mins by scintillation counting analysis.
For assay [2] the target is unchanged. In words: Agonist activity at human mAChR1 receptor expressed in F1pIn CHO cells assessed as induction of intracellular calcium mobilization. For orientation: Calcium flux is commonly read through the fluorescence of an indicator in the cells.
Assay [3] shares this target. Kind of assay: Partial agonist activity at human mAChR1 receptor expressed in F1pIn CHO cells assessed as induction of intracellular calcium mobilization.

Chain of Muscarinic acetylcholine receptor M1 (Homo sapiens) (P11229 whole entry, looked up): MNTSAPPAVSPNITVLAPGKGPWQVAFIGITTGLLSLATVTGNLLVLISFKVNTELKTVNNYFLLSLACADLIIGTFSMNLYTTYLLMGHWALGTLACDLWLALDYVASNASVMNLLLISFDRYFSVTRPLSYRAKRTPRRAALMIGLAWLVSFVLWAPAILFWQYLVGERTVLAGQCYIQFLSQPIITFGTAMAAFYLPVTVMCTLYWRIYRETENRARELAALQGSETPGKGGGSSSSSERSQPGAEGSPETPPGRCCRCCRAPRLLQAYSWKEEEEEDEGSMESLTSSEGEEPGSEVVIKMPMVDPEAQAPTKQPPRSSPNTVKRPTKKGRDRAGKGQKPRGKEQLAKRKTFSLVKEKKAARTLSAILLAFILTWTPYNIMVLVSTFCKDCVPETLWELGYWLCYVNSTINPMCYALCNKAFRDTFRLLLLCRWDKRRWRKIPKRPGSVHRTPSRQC

Consider `O=C1COc2ccccc2N1CCCN1CCC(c2noc3cc(F)ccc23)CC1`, for which the IC50 (commonly the concentration that inhibits the measured activity by half) in assay [1] is 3.25 µM and 3.24 µM.

Consider `COc1ccccc1N1CCN(CCCN2C(=O)COc3ccccc32)CC1`, for which, in assay [1], the IC50 was 5.18 µM and 5.13 µM.

In the case of `O=C1COc2ccccc2N1CCCN1CCN(c2cccc(Cl)c2Cl)CC1`, the IC50 in assay [1] was 1.86 µM and 1.87 µM.

Take `O=C(Cc1ccccc1)NC1CCN(CCCN2C(=O)COc3ccccc32)CC1` [N-{1-[3-(3-Oxo-2,3-dihydrobenzo[1,4]oxazin-4-yl)propyl]-piperidin-4-yl}-2-phenylacetamide]: the IC50 in assay [1] was 8.53 µM and 8.51 µM. In assay [2], the EC50 (usually the concentration that produces a half-maximal response) is 0.129 µM. As to `O=C1COc2ccccc2N1CCCN1CCN(c2cccc3[nH]c(=O)oc23)CC1`, the IC50 in assay [1] was 4.27 µM and 4.26 µM. As to `O=C1COc2ccccc2N1CCCN1CCN(c2nsc3ccccc23)CC1`, the IC50 in assay [1] is 4.19 µM and 4.17 µM. Also, the EC50 in assay [3] is 1.04 µM and 1.05 µM.
